Measured values from paper PMC5515971, “Utility of spherical human liver microtissues for prediction of clinical drug-induced liver injury” (Archives of Toxicology, 2017).
pIC50: −log10 of the molar value. Like-named read-outs stand apart in the source and are kept apart here.

How the values were obtained:
[1] = cited from earlier work
[2] = cited from earlier work; for P/N (DILI positive / DILI negative): P = DILI severity categories 1, 2 and 3, N = categories 4 and 5; for DILI category: clinical, from literature and product labels
[3] = tested on: primary human hepatocytes (PHH); assay: Cytotoxicity (cellular ATP, CellTiter-Glo) in 2D plated primary human hepatocytes, 48 h treatment; type: cell-based; conditions: for pIC50: Hepatocyte, read-out: Geomean IC50;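 on all read-outs here: 384-well plates, luminescence read-out, normalized to vehicle wells with 1% DMSO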
Description: Cryopreserved PHH (lot IZT) were thawed in InVitroGro HT™ thawing media at 37 °C, pelleted, and resuspended. Viable hepatocytes were counted by Trypan blue exclusion and plated in black-walled, BioCoat™ collagen 384-well plates at 13,000 cells/well in InVitroGro CP™ plating media supplemented with 1% Torpedo™ Antibiotic Mix and 5% fetal bovine serum and incubated overnight for 18 h. Cells were then treated with compounds for 48 h diluted in InVitroGro HI™ incubation media containing 1% Torpedo Antibiotic Mix, 10% fetal bovine serum, and 1% DMSO. […] Luminescence was determined on an EnVision™ Muliplate Reader (PerkinElmer, Waltham, MA, USA), and data were normalized to vehicle (1% DMSO) control wells.

[4] = tested on: 3D human liver microtissues (hLiMT); assay: Cytotoxicity (cellular ATP, CellTiter-Glo 2.0) in 3D human liver microtissues, 14 day repeat-dose treatment; conditions: for IC50: Hepatocyte, read-out: Geomean IC50 [µM]
[5] = Clinical DILI severity categorization and DILI pattern; conditions: P = DILI severity categories 1, 2 and 3; N = categories 4 and 5
[6] = ref Chen et al 2016 / Chen et al 2011; cited from earlier work
[7] = tested on: 3D human liver microtissues (hLiMT); assay: Cytotoxicity (cellular ATP) in 3D human liver microtissues, 5-6 days treatment; type: cell-based; conditions: Homo sapiens; hLiMT, 5/6 days, ATP content; read-out: IC50 SHORT;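 further: Hanging-drop spheroids, seven-point dilution series, re-dosed on day 3, CellTiter-Glo 2.0 luminescence, normalized to 0.5 or 1% DMSO vehicle controls on the same plate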
[8] = human Cmax total, used for IC50/Cmax
[9] = human total plasma Cmax, ref literature values
[10] = Table 1, ref Garside et al. (2014)
[11] = clinical DILI severity category, 1-5
[12] = 2D primary human hepatocytes (lot IZT), 48 h treatment, total cellular ATP content
[13] = table S-4, ref Garside et al. 2014
[14] = table S-5, ref Garside et al. 2014

Compound	Cmax [1, 8] [nM]	Cmax [1, 9] [nM]	P/N (DILI positive / DILI negative) [2]	DILI severity category [2, 10]	DILI severity category [2, 11]	DILI category ([2]; ref Garside et al. 2014)	pIC50 [3, 12]	IC50 ([4]; Homo sapiens, 336 h) [µM]	P/N (DILI positive / DILI negative) [5]	FDA DILI Classification DILI severity score [6]	LTKB DILI classification [6]	pIC50 [7]	DILI severity category [2, 13]	classification at 10× MOS threshold ([3]; PHH 48 h)	classification at 10× MOS threshold ([4]; hLiMT 14 days)	change of IC50 with prolonged exposure ([4]; hLiMT 14 days versus 5-6 days)	pIC50 ([4]; Homo sapiens, 336 h, read-out: IC50 LONG)	DILI severity category [2, 14]	classification at 50× MOS threshold ([4]; hLiMT 14 days)	pIC50 ([3]; Homo sapiens, 48 h)
Cc1c(-c2ccccc2)oc2c(C(=O)OCCN3CCCCC3)cccc2c1=O [Flavoxate]	1790	1790	N	5: No DILI (N = 25)	5. No DILI	5. No DILI	< 5.00	> 10	N	0	no DILI concern									
Fc1ccc([C@@H]2CCNC[C@H]2COc2ccc3c(c2)OCO3)cc1 [Paroxetine]	200	200		2: High clinical DILI concern (N = 23)	2. High Clinical DILI Concern	2. High Clinical DILI Concern	4.82	12		8	less DILI concern	4.67	2							
O=C(NC1CCN(CCc2c[nH]c3ccccc23)CC1)c1ccccc1 [Indoramin]	290	290	N	5: No DILI (N = 25)	5. No DILI	5. No DILI	< 4.30	> 50	N											
CCN(CC)C(=O)/C(C#N)=C/c1cc(O)c(O)c([N+](=O)[O-])c1 [Entacapone]	3280	3280	N	4: Enzyme elevations in clinic (N = 16)	4. Enzyme Elevations in Clinic	4. Enzyme Elevations in Clinic	4.00	152	N	0	less DILI concern									
Cc1ccc(Cl)c(Nc2ccccc2C(=O)O)c1Cl [Meclofenamate]	81100	81100	N	4: Enzyme elevations in clinic (N = 16)	4. Enzyme Elevations in Clinic	4. Enzyme Elevations in Clinic	3.53	~23.1	N	3	Ambiguous DILI concern			false positive	false positive					
CC(C)C(=O)Nc1ccc([N+](=O)[O-])c(C(F)(F)F)c1 [Flutamide]	5400	5430		1: Severe clinical DILI (N = 23)	1. Severe Clinical DILI	1. Severe Clinical DILI	4.14	25.7		8	most DILI concern	4.90	1			higher IC50 value				
CN(C)C(=N)N=C(N)N [Metformin]	7740	7740		3: Low clinical DILI concern (N = 23)	3. Low Clinical DILI Concern	3. Low Clinical DILI Concern	< 4.00	> 100		0	less DILI concern	4.00	3							
NC(CO)C(=O)NNCc1ccc(O)c(O)c1O (centres unmarked) [Benserazide]	3890	3890	N	5: No DILI (N = 25)	5. No DILI	5. No DILI	< 3.30	> 62.5	N											
CC(C)(C)NCC(O)c1ccc(O)c(CO)c1 (centres unmarked) [Albuterol]	80	80	N	5: No DILI (N = 25)	5. No DILI	5. No DILI			N		no DILI concern									
CC1=C(/C=C/C(C)=C/C=C/C(C)=C/C(=O)O)C(C)(C)CCC1 [Tretinoin]	1330	1330		3: Low clinical DILI concern (N = 23)	3. Low Clinical DILI Concern	3. Low Clinical DILI Concern	< 4.00	> 17		3	Ambiguous DILI concern	4.53	3				4.77			
CN(Cc1cnc2nc(N)nc(N)c2n1)c1ccc(C(=O)N[C@@H](CCC(=O)O)C(=O)O)cc1 [Methotrexate]	5000	5000		1: Severe clinical DILI (N = 23)	1. Severe Clinical DILI	1. Severe Clinical DILI	< 4.00	> 100		3	most DILI concern	4.00	1							
CN(C)C(=O)Oc1cccc([N+](C)(C)C)c1 [Neostigmine]	45	44.8	N	5: No DILI (N = 25)	5. No DILI	5. No DILI	< 5.00	> 10	N											
Cc1ccccc1C(OCCN(C)C)c1ccccc1 (centres unmarked) [Orphenadrine]	740	740	N	5: No DILI (N = 25)	5. No DILI	5. No DILI			N	0	no DILI concern							5. No DILI		
CN[C@@H]1[C@H](O)[C@H](NC)[C@H]2O[C@@]3(O)C(=O)C[C@@H](C)O[C@H]3O[C@@H]2[C@H]1O [Spectinomycin]	323000	323000		3: Low clinical DILI concern (N = 23)	3. Low Clinical DILI Concern	3. Low Clinical DILI Concern	< 4.00	> 100		3	Ambiguous DILI concern	4.00	3							
CC(=O)N1CCN(c2ccc(OCC3COC(Cn4ccnc4)(c4ccc(Cl)cc4Cl)O3)cc2)CC1 (centres unmarked) [Ketoconazole]	11300	11300		1: Severe clinical DILI (N = 23)	1. Severe Clinical DILI	1. Severe Clinical DILI	4.33	4.6		8	most DILI concern	5.07	1							
C#CCN(C)Cc1ccccc1 [Pargyline]	1000	1000	N	4: Enzyme elevations in clinic (N = 16)	4. Enzyme Elevations in Clinic	4. Enzyme Elevations in Clinic	< 4.00	> 100	N									4. Enzyme Elevations in Clinic		
O=C1CC2(CCCC2)CC(=O)N1CCCCN1CCN(c2ncccn2)CC1 [Buspirone]	10	10	N	4: Enzyme elevations in clinic (N = 16)	4. Enzyme Elevations in Clinic	4. Enzyme Elevations in Clinic	< 3.70	163	N										not	
[H]/N=C(/N)c1ccc(NCc2nc3cc(C(=O)N(CCC(=O)O)c4ccccn4)ccc3n2C)cc1 [Dabigatran]	370	370	N	4: Enzyme elevations in clinic (N = 16)	4. Enzyme Elevations in Clinic	4. Enzyme Elevations in Clinic		> 50	N											< 4.60
Cc1cc(CC(=O)O)n(C)c1C(=O)c1ccc(Cl)cc1 [Zomepirac]	13700	13700	N	5: No DILI (N = 25)	5. No DILI	5. No DILI	< 3.00	> 1000	N											
